Assays:
[1] = test system: differentiated human neural cells (SH-SY5Y); assay: Crystal violet assay of cell number; format: cell-based
Method: The human neuroblastoma cell line, SH-SY5Y (ECACC, UK) was maintained in Dulbecco's Modified Eagle Medium supplemented with glucose ([…]) and 10% (v/v) cosmic calf serum (Fisher Scientific, UK) at 37° C. in a humidified atmosphere of 5% CO2, 95% air and allowed to reach 70-80% confluence before seeding. Cells (passage 10-18) were plated at 10 000 cells per well in 96 well tissue culture plates (Nunc, VWR, UK) and at a density of 2×10^5 cells in 35 mm dishes for protein extraction. To induce differentiation, cells were cultured in DMEM supplemented with glucose ([…]), 1% (v/v) cosmic calf serum and 10 μM retinoic acid for 5 days. Thereafter they were incubated in DMEM supplemented with glucose ([…]), serum replacement 2 (2%; Sigma, UK) and 18 μM 5-fluorodeoxyuridine to inhibit proliferation of undifferentiated cells. The 50% of the medium was changed every 2-3 days and pharmacological treatment was carried out 7 days after switching to this medium. Reagents used were (from Sigma UK unless stated) 0.1-10 nM human leptin and leptin (116-130); 0.1-10 nM leptin (22-56; Bachem; Switzerland); 10 nM leptin (116-121) leptin (117-122), leptin (124-129) or leptin (125-130; all Severn Biotech, UK); 5 μM copper chloride; […], 5 μM WP1066 or 50 nM wortmannin. All treatments were added to the culture at the same time and survival assays were carried out after 96 h treatment. Protein samples for signaling ELISA were extracted 3 h after exposure to the relevant reagents and for biomarker expression after 72 hours.
(§1) The concentration of lactate dehydrogenase (LDH) in the culture medium or the mitochondrial activity within cells was used to monitor the level of cell death, as previously (Oldreive and Doherty 2010). In certain experiments, a Crystal violet assay was used to assess total cell number. Cells were fixed in neutral buffered formalin and washed 3 times in PBS prior to staining with 0.01% crystal violet acetate for 5 min. Plates were washed 5-10 times in dH2O and cells solubilised in 100 μl dimethyl sulfoxide (DMSO) before reading the absorbance on a Biohit BP100 plate reader. For all assays, data is expressed as percentage relative to control, untreated wells to normalize for differences in plating density between individual experiments.
In parallel studies a crystal violet assay was used to verify these findings by assessing cell number. In CuCl2-treated cells, there was a concentration-dependent increase in the survival of cells treated with either leptin or leptin (116-130). […] Treatment with leptin (116-130) also mirrored leptin action by increasing cell viability in Aβ1-42-treated cultures as cell number increased by 19.2±15% and 44.3±7.5% after treatment with 0.1 nM or 10 nM leptin, respectively (n=5 for each; P<0.01).

[2] = test system: C57/BL6 mice; assay: Object-place-context (OPC) recognition task, episodic-like memory; format: in vivo; settings: 100 μl IP of 7.8 nM/ml 30 min prior to testing
Method: FIG. 7A, FIG. 7B, FIG. 7C and FIG. 7D show Leptin (116-130) enhances episodic-like memory. FIG. 7A: object-place-context task used to assess episodic-like memory. There are 2 sample phases in which mice are exposed to different copies of 2 different objects (star and hexagon) and allowed to explore for 3 min. In the test phase they see 2 new copies of 1 of the objects. The arrow points to the object that has not been previously seen in that place within that context. FIG. 7B: mean±SEM discrimination index for the 3 groups. *P<0.05. FIG. 7C: total exploration time in the test phase is not different between groups. FIG. 7D: exploration of the novel and familiar objects in the test phase; treatment with leptin or the leptin fragment (116-130) enhanced performance on the episodic-like memory test.
To further assess its therapeutic potential we next asked if this fragment has similar cognitive enhancing properties to the whole leptin molecule. Previous studies indicate that leptin enhances hippocampal-dependent memory (Oomura et al. 2006; Farr et al. 2006), whereas resistance to lep-tin results in impaired spatial memory (Li et al. 2002). We used the object-place-context (OPC) recognition task which models human episodic memory, the first cognitive process to be compromised in the early stages of AD (Swainson et al. 2001). […]

[3] = test system: SH-SY5Y; assay: Cell survival with Aβ1-42 and leptin (22-56) (data not shown); format: cell-based, human
Method: The human neuroblastoma cell line, SH-SY5Y (ECACC, UK) was maintained in Dulbecco's Modified Eagle Medium supplemented with glucose ([…]) and 10% (v/v) cosmic calf serum (Fisher Scientific, UK) at 37° C. in a humidified atmosphere of 5% CO2, 95% air and allowed to reach 70-80% confluence before seeding. Cells (passage 10-18) were plated at 10 000 cells per well in 96 well tissue culture plates (Nunc, VWR, UK) and at a density of 2×10^5 cells in 35 mm dishes for protein extraction. To induce differentiation, cells were cultured in DMEM supplemented with glucose ([…]), 1% (v/v) cosmic calf serum and 10 μM retinoic acid for 5 days. Thereafter they were incubated in DMEM supplemented with glucose ([…]), serum replacement 2 (2%; Sigma, UK) and 18 μM 5-fluorodeoxyuridine to inhibit proliferation of undifferentiated cells. […]
as §1, with “In certain experiments, a Crystal violet assay was used to assess total cell number. Cells were fixed in neutral buffered formalin and washed 3 times in PBS prior to staining with 0.01% crystal violet acetate for 5 min.” left out, “experiments. […]” for “experiments.”

Substance	increase in cell number, Aβ1-42-treated cultures ([1]; 0.1 nM) [%]	increase in cell number, CuCl2-treated cells ([1]; 0.1 nM) [%]	increase in cell number, Aβ1-42-treated cultures ([1]; 10 nM) [%]	increase in cell number, CuCl2-treated cells ([1]; 10 nM) [%]	performance (discrimination index) in episodic-like OPC task [2]	survival in Aβ1-42 treated cells ([3]; Aβ1-42 with 10 nM leptin (22-56)) [%]	survival following Aβ1-42 treatment ([3]; Aβ1-42 alone) [% survival]
leptin: the metabolic hormone leptin, whole (full length) leptin molecule; human leptin from Sigma in SH-SY5Y work	19.2±15	16.7±3.4	44.3±7.5	43.4±9.2	enhanced performance on the task relative to the control group	–	–
leptin (22-56): leptin fragment amino acids 22-56 (Bachem), comparison fragment (VPIQKVQDDTKTLIKTIVTRINDISHTQSVSSKQK; UniProt P41159 22-56, looked up, fragment) [reference compound]	–	–	–	–	–	48.6±9.3	–
Aβ1-42: amyloid beta 1-42, toxin used in the AD models [reference compound]	–	–	–	–	–	–	41.2±5.8
SCSLPQTSGLQKPES (listed as Mus musculus) [leptin (116-130)]	29.4±9.4	27.8±10.6	51.8±6.3	39.9±13.5	enhanced performance on the task relative to the control group	–	–

From patent US20200255492A1, “LEPTIN PEPTIDES AND THEIR USE FOR TREATING NEUROLOGICAL DISORDERS” (UNIVERSITY OF DUNDEE, priority 2017, published 2020)
